The source of these data is ChEMBL document CHEMBL3421552, “Penicitols A-C and penixanacid A from the mangrove-derived Penicillium chrysogenum HDN11-24” (J Nat Prod, 2015).

The test system of assay [1] is HEK293. Briefly: Cytotoxic activity against human HEK293 cells by SRB method. It counts as cell-based. In general terms: In SRB staining, fixed cells bind dye roughly in proportion to their protein.
Assay [2] has as its system HeLa. Kind of assay: Cytotoxic activity against human HeLa cells by MTT method. The format is functional, cell-based. In general terms: Formazan colour is commonly taken as a measure of viable cells.
A short description of assay [3]: Cytotoxic activity against human HCT116 cells by SRB method. It counts as functional, cell-based. Conditions: HCT-116.
Assay [4] concerns A549. Briefly: Cytotoxic activity against human A549 cells by SRB method.
Assay [5] in a line: Cytotoxic activity against human Bel7402 cells by MTT method. The conditions noted are these: Bel-7402.

pIC50: −log10 of the molar value.

With `COc1cccc2c1C(=O)c1c(O)c3c(c(O)c1C2=O)C[C@@](O)(C(=O)CO)C[C@@H]3O[C@H]1C[C@H](N)[C@H](O)[C@H](C)O1` [DOXORUBICIN], the pIC50 in assay [1] was 7.40; in assay [2], 6.30; in assay [3] it was 6.70.

As for `CO[C@]1(C)C[C@H]2O[C@H](C)[C@@H](C)c3c(C)c(O)cc(c32)O1`, the pIC50 was less than 4.30 in assay [4]; 4.49 in assay [1]; 4.33 in assay [5]; 4.35 in assay [2]; less than 4.30 in assay [3].

For `CO[C@@]1(C)C[C@H]2O[C@H](C)[C@@H](C)c3c(C)c(O)cc(c32)O1`, the negative-log IC50 (pIC50) in assay [4] was less than 4.30; in assay [1] it was 4.37; in assay [5], less than 4.30; in assay [2] it was 4.45; in assay [3], less than 4.30.

Take `COC(=O)c1ccc2c(=O)c3cc(O)cc(C(=O)O)c3oc2c1O`: the negative logarithm of the IC50 (pIC50) in assay [4] was 4.77; in assay [1] it was 4.55; in assay [5], 4.51; in assay [2] it was 5.00; in assay [3] it was 4.72.

For `CO[C@]12CCCC[C@H]1[C@H]1O[C@H](C)[C@@H](C)c3c(O)c(O)cc(c31)O2`, the negative-log IC50 (pIC50) in assay [4] was 5.12; in assay [1] it was 5.17; in assay [5], 4.98; in assay [2] it was 5.34; in assay [3], 5.25.

For `Cc1c(O)c(O)c(Oc2cc(O)c(C)c3c2C(=O)O[C@H](C)[C@H]3C)c2c1[C@H](C)[C@@H](C)O2`, the pIC50 in assay [4] is 5.02; in assay [1] it was 5.19; in assay [5], 5.15; in assay [2], 5.47; in assay [3], 5.46.

Consider `CO[C@H]1CCc2oc(=O)c3c(O)cc(C)cc3c21`, for which the pIC50 is 4.97 in assay [4]; 4.50 in assay [1]; 4.39 in assay [5]; 4.90 in assay [2]; 4.65 in assay [3].

What is called pIC50 is the IC50 on a negative log10 scale, so that one unit is a factor of ten.
